From ChEMBL document CHEMBL2095176, “GSK Tuberculosis Screening Data”
Converted amounts (≈) assume the structure as drawn.

tested on: Mycobacterium tuberculosis variant bovis BCG; assay: microbe, parasite or virus in culture; assay type: functional

Structure (SMILES)	MIC90 [µM]
N#Cc1nc(-c2ccccc2F)oc1NCCc1ccccc1	7.9 (≈ 2.43 µg/mL)
c1csc(Cc2nn3c(-c4n[nH]c5c4CCC5)nnc3s2)c1	3.2 (≈ 1.05 µg/mL)
Cc1nc2ccccn2c1C(=O)NCc1ccc2c(c1)OCO2	3 (≈ 0.928 µg/mL)
Cc1cc(C)c2cc(CN(Cc3cccnc3)C(=O)c3ccc(F)cc3)c(Cl)nc2c1	2.9 (≈ 1.26 µg/mL)
O=C(c1cc2ccccc2o1)N1CCN(Cc2ccc3c(c2)OCO3)CC1	2.7 (≈ 0.984 µg/mL)
COc1ccc(-c2cc(=O)c3cc(OCC(=O)OC(C)C)ccc3o2)cc1	6.2 (≈ 2.28 µg/mL)
O=C(Nc1nnc(-c2ccc(Br)cc2)o1)c1cccc(F)c1	2.2 (≈ 0.797 µg/mL)
O=C(c1cnn(C(=O)c2ccco2)c1)c1ccccc1O	2.5 (≈ 0.706 µg/mL)
Cc1cc(NC(=O)c2cccs2)n(-c2nc(C)c(C)c(=O)[nH]2)n1	1.8 (≈ 0.593 µg/mL)
Cc1n[nH]c(C)c1S(=O)(=O)NCc1nc(NCCCc2ccccc2)c2ccccc2n1	5.9 (≈ 2.66 µg/mL)
Nc1ccccc1Nc1ccc2c(c1)OCO2	1.7 (≈ 0.388 µg/mL)
CC(C)Cc1cn(-c2nc(CN3CCCC3)cs2)c2cc(Cl)ccc12	1.9 (≈ 0.711 µg/mL)
CC(=O)Nc1ccc(S(=O)(=O)Nc2ccccc2Nc2ccc(C)cc2)cc1	1.9 (≈ 0.751 µg/mL)
COCc1nc(N2CCNCC2)c2c(C)nn(-c3cccc(Cl)c3)c2n1	1.9 (≈ 0.708 µg/mL)
O=C(C=Cc1cccs1)N1CCN(Cc2ccc(Br)s2)CC1	2.8 (≈ 1.11 µg/mL)
CN1CCN(c2ccc(C(F)(F)F)cc2NC(=O)c2ccccn2)CC1	7.2 (≈ 2.62 µg/mL)
NC(=O)c1csc(-c2cccc(OCCNCCc3cccc(F)c3)c2)n1	2 (≈ 0.771 µg/mL)
CCOc1ccc(-c2nc(NC(=O)C3CCCN3S(=O)(=O)c3cccs3)sc2C)cc1 (centres undefined)	2 (≈ 0.955 µg/mL)
COC(=O)c1c(NC(=O)c2c(F)c(F)c(F)c(F)c2F)sc2c1CCCCC2	2 (≈ 0.839 µg/mL)
Cn1nc(C(=O)N2CCc3sccc3C2c2ccccc2)c2ccccc2c1=O (centres undefined)	2 (≈ 0.803 µg/mL)
CC(C)CCN(c1ccc(C#N)c(Cl)c1)[C@H]1CCNC1	2 (≈ 0.584 µg/mL)
O=C(Nc1nc(-c2ccccn2)cs1)c1cccc(F)c1	2 (≈ 0.599 µg/mL)
CC1=C(C(=O)Nc2ccc3[nH]ncc3c2)C(c2cc(C#Cc3ccccc3)cs2)NC(=O)N1 (centres undefined)	2 (≈ 0.907 µg/mL)
Cc1cc(C)n(-c2nc(O)cc(-c3ccccc3)n2)n1	2 (≈ 0.533 µg/mL)
Cc1nc2ccccn2c1C(=O)NCc1ccccc1	3.4 (≈ 0.902 µg/mL)

Structure (SMILES)	MIC90 [µM]
COc1ccc(N(C(=O)CNc2ccccc2Nc2ccccc2)C2CCCC2)cc1	2.1 (≈ 0.873 µg/mL)
O=C(Nc1nc(-c2ccccn2)cs1)c1cc2c(F)cccc2s1	2.1 (≈ 0.746 µg/mL)
COc1ccccc1-c1cc(O)c2c(C)nn(-c3ccccc3)c2n1	2.1 (≈ 0.696 µg/mL)
O=c1c2sc(-c3ccc(Cl)cc3)cc2ncn1-c1ccc(OCCN2CCCC2)c(Cl)c1	2.1 (≈ 1.02 µg/mL)
CC(=O)N1CCc2ccc(/C=C/C(=O)O)cc21	2.1 (≈ 0.486 µg/mL)
Cc1ccc2nc(C(F)(F)F)c(C(=O)NCc3cccc(OC(C)C)c3)n2c1	1.9 (≈ 0.744 µg/mL)
Clc1cc(N2CCNCC2)cc(Cl)c1OCc1ccccc1	2.2 (≈ 0.742 µg/mL)
c1ccc2c(Cc3nnc(Sc4ccnc(N5CCN(c6ccncc6)CC5)n4)n3CCCN3CCOCC3)c[nH]c2c1	2.2 (≈ 1.31 µg/mL)
COc1cc2ccccc2cc1C(=O)NCc1cccc(-c2ccccc2OC)c1	3.6 (≈ 1.43 µg/mL)
Nc1cccnc1Nc1ccc(C(F)(F)F)cc1	3.7 (≈ 0.937 µg/mL)
O=C(O)COCC(=O)NNC(=O)c1ccncc1	2.3 (≈ 0.582 µg/mL)
NC(=O)C(N)Cc1c[nH]c2ccc(F)cc12 (centres undefined)	2.3 (≈ 0.509 µg/mL)
CCSc1ccc(C(=O)Nc2nc(-c3ccccn3)cs2)cc1	2.3 (≈ 0.785 µg/mL)
Cc1ccc(-c2nnc(NC(=O)c3ccc(F)cc3)o2)cc1C	2.3 (≈ 0.716 µg/mL)
c1cc(CN2CCC3(CC2)OCCc2sccc23)nc(-c2ccc3c(c2)OCO3)c1	2.3 (≈ 0.967 µg/mL)
Cc1csc2nc(Cc3ccc(C(=O)c4ccc(C(=O)OCc5ccccc5)cc4)cc3)oc(=O)c12	2.3 (≈ 1.14 µg/mL)
COc1ccc(Nc2ccccc2N)cc1Cl	2.3 (≈ 0.572 µg/mL)
Cc1cc(OCC(=O)NCc2ccccc2)c2cc(Br)ccc2n1	4.6 (≈ 1.77 µg/mL)
Cc1ccc(N2CCN(CCOc3cccc(-c4ccc(C(=O)N5CCCC5)cc4)c3)CC2)cc1C	2.4 (≈ 1.16 µg/mL)
O=C(COc1ccc(Br)cc1)NNC(=O)c1cccs1	2.4 (≈ 0.853 µg/mL)
CCN(CC)CCCn1c(Sc2ccnc(N3CCN(c4ccncc4)CC3)n2)nnc1-c1ccccc1	2.4 (≈ 1.27 µg/mL)
CCN(CC)CCCn1c(Sc2ccnc(N3CCN(c4ccncc4)CC3)n2)nnc1-c1ccccn1	2.4 (≈ 1.27 µg/mL)
COc1ccc(CN2CCC3(CCc4ccccc43)CC2)cc1OCc1ccccc1	2.4 (≈ 0.993 µg/mL)
Cn1c(SCC(=O)Nc2sccc2C#N)nnc1-c1ccc(Cl)cc1	2.4 (≈ 0.936 µg/mL)
N#Cc1ccc2c(c1)CCN(CCCSc1ccnc3cc(C(F)(F)F)ccc13)CC2	3.2 (≈ 1.41 µg/mL)

Structure (SMILES)	MIC90 [µM]
Cc1cc(C(=O)Nc2nc3c(C)cccc3s2)c2c(C)nn(C(C)C)c2n1	2.5 (≈ 0.949 µg/mL)
O=C(COc1ccc(-c2ccccc2)cc1)NNC(=O)c1ccco1	2.5 (≈ 0.841 µg/mL)
O=c1c2sc(-c3ccc(Cl)cc3)cc2ncn1-c1ccc2c(c1)OC[C@H](CN1CCCC1)O2	2.5 (≈ 1.2 µg/mL)
O=C(NC12CC3CC(CC(C3)C1)C2)c1cc2ccccc2[nH]1	2.5 (≈ 0.736 µg/mL)
CCOc1ccc(OCc2ccc(C(=O)NNC(=O)c3ccc([N+](=O)[O-])o3)cc2)cc1	1.6 (≈ 0.681 µg/mL)
COc1ccc(N(C(=O)CNc2ccccc2Nc2ccc(Cl)cc2)C(C)C)cc1	2.6 (≈ 1.1 µg/mL)
CC1CCN(Cc2c(O)ccc3oc(-c4ccco4)cc(=O)c23)CC1	2.6 (≈ 0.882 µg/mL)
CC1=NN(C(=O)c2ccncc2)C(O)(c2ccncc2)C1 (centres undefined)	2.6 (≈ 0.734 µg/mL)
CC(=O)NCCn1c(Sc2ccnc(N3CCN(c4ccncc4)CC3)n2)nnc1-c1ccco1	2.6 (≈ 1.28 µg/mL)
CC(=O)c1cccc(NC(=O)N(CCc2cccnc2)Cc2csc(-c3ccc(CNCc4ccccc4)cc3)n2)c1	2.6 (≈ 1.5 µg/mL)
c1ccc(SCc2nn3c(-c4ccccc4)nnc3s2)cc1	7.5 (≈ 2.43 µg/mL)
c1ccc(-c2nc(N3CCCNCC3)c3ccccc3n2)cc1	2.7 (≈ 0.822 µg/mL)
COc1ccc(-c2nnc3sc(Cc4ccccc4)nn23)cc1	2.7 (≈ 0.87 µg/mL)
CN(C)CCNCc1ccc(-c2cc(Cl)cc(Cl)c2)o1	2.7 (≈ 0.846 µg/mL)
c1ccc(-c2csc(CN3CCC4(CC3)OCCc3sccc34)c2)cc1	2.7 (≈ 1.03 µg/mL)
c1ccc(Cc2nnc(Sc3ccnc(N4CCN(c5ccncc5)CC4)n3)n2CCCN2CCOCC2)cc1	2.7 (≈ 1.51 µg/mL)
COc1cc(C(C)(C)C)ccc1C(=O)Nc1cccc2c1CCC2N (centres undefined)	2.7 (≈ 0.914 µg/mL)
CCC(Sc1nc2ccccc2o1)C(=O)Nc1nccs1 (centres undefined)	5.7 (≈ 1.82 µg/mL)
COc1ccc(S(=O)(=O)Nc2ccccc2Nc2ccc(C)cc2)cc1	2.8 (≈ 1.03 µg/mL)
N#Cc1ccc(-c2ccc(OCC(=O)NNC(=O)c3ccco3)cc2)cc1	2.8 (≈ 1.01 µg/mL)
CCc1c(C)nc(-n2nc(C)cc2NC(=O)COc2ccccc2F)[nH]c1=O	2.8 (≈ 1.08 µg/mL)
c1ccc2oc(CN3CCC4(CC3)OCCc3sccc34)cc2c1	2.8 (≈ 0.95 µg/mL)
COc1cc(Nc2ccccc2)ccc1NS(=O)(=O)c1ccc(-c2cc(C(F)(F)F)n(C)n2)s1	2.8 (≈ 1.42 µg/mL)
Cc1cc(C)c2cc(C(=O)NC3CCCCC3)[nH]c2c1	2.8 (≈ 0.757 µg/mL)
Cc1cc2ncn(-c3nccc(N4CCN(Cc5ccncc5)CC4)n3)c2cc1C	2.8 (≈ 1.12 µg/mL)

Structure (SMILES)	MIC90 [µM]
CCN(CC)CCCn1c(Sc2ccnc(N3CCN(c4ccncc4)CC3)n2)nnc1-c1ccco1	2.8 (≈ 1.46 µg/mL)
c1coc(-c2nnc(Sc3ccnc(N4CCN(c5ccncc5)CC4)n3)n2CCCN2CCOCC2)c1	2.8 (≈ 1.49 µg/mL)
c1ccc2c(Cc3nnc(Sc4ccnc(N5CCN(c6ccncc6)CC5)n4)n3CCN3CCOCC3)c[nH]c2c1	2.8 (≈ 1.63 µg/mL)
O=C(Nc1nnc(-c2ccc(Cl)cc2)o1)c1ccc(Cl)cc1	2.8 (≈ 0.936 µg/mL)
Cc1ccc(C)c(-c2nnc(NC(=O)c3ccc(Cl)s3)o2)c1	2.8 (≈ 0.935 µg/mL)
CCN(Cc1ccc2c(c1)OCO2)C(=O)CSc1nc(NC)c2ccccc2n1	3.3 (≈ 1.35 µg/mL)
CCc1ccc(Nc2nnc(SCc3cc(C)on3)s2)cc1	7.4 (≈ 2.46 µg/mL)
NC(=O)c1cnc2ccc(S(=O)(=O)c3ccccc3)cc2c1Nc1ccc(O)cc1	2.9 (≈ 1.22 µg/mL)
N#Cc1nc(-c2cccs2)oc1S(=O)(=O)c1ccc(Br)cc1	2.9 (≈ 1.15 µg/mL)
COc1ccc(-c2ccc(Nc3cccc(S(=O)(=O)CCNCC(C)(C)C)c3)nc2)cn1	2.9 (≈ 1.32 µg/mL)
CCN(CC)CCCn1c(Cc2ccccc2)nnc1Sc1ccnc(N2CCN(c3ccncc3)CC2)n1	2.9 (≈ 1.58 µg/mL)
COc1cc(Cc2cnc(N)nc2N)c2cnccc2c1N(C)C	6.4 (≈ 2.08 µg/mL)
CCCc1cc(=O)[nH]c(-n2nc(C)cc2NC(=O)C(CC)c2ccccc2)n1 (centres undefined)	2.7 (≈ 1.02 µg/mL)
Br.CC1(C)N=C(N)N=C(N)N1OCCc1ccc2ccccc2c1	8.8
Br.CCCc1cc(C(C)=O)ccc1OCCCON1C(=N)N=C(N)NC1(C)C	8.8
Cc1cc(NCCc2ccccc2)nc(NC(=N)Nc2ccc(Cl)cc2)n1	2 (≈ 0.762 µg/mL)
Nn1c(=O)oc2ccc(Cl)cc2c1=O	2.8 (≈ 0.595 µg/mL)
Cc1cc(C(=O)Nc2nc(-c3ccccn3)nc3ccsc23)no1	2.8 (≈ 0.945 µg/mL)
Cc1cccc2nc(C(=O)Nc3nc(CN4CCC(C)CC4)cs3)cn12	2 (≈ 0.739 µg/mL)
c1ccc(-c2csc(Nc3nc4cc5c(cc4s3)OCO5)n2)nc1	1.5 (≈ 0.532 µg/mL)
Fc1cccc2sc(Nc3nc(-c4ccccn4)cs3)nc12	2.3 (≈ 0.755 µg/mL)
Fc1ccc2nc(Nc3nc(-c4ccccn4)cs3)sc2c1	1 (≈ 0.328 µg/mL)
Br.CC(C)(C)c1ccccc1OCCCON1C(=N)N=C(N)NC1(C)C	1.8
CCc1c(C)nc(-n2nc(C)cc2NC(=O)c2cccc3ccccc23)[nH]c1=O	1.8 (≈ 0.697 µg/mL)
